Values of other authors as cited in patent US20080027034A1, “Ciclesonide and Syk Inhibitor Combination and Method of Use Thereof” (priority 2004, published 2008).

How the values were obtained:
[1] = compared with budesonide
[2] = not given; remark: listed apart in the source

Question: What does the source list for `CC(C)C(=O)OCC(=O)[C@@]12O[C@H](C3CCCCC3)O[C@@H]1C[C@H]1[C@@H]3CCC4=CC(=O)C=C[C@]4(C)[C@H]3[C@@H](O)C[C@@]12C` [Ciclesonide, [11β,16α(R)]-16,17-[(Cyclohexylmethylen)bis(oxy)]-11-hydroxy-21-(2-methyl-1-oxoprop-oxy)pregna-1,4-dien-3,20-dione]?
Answer: anti-inflammatory activity relative to budesonide [1]: higher; systemic activity relative to budesonide (compared with budesonide): three times lower; systemic activity (in vivo): low; metabolism by liver oxidases ([2]; liver oxidases): very high; concentration of the drug in the lungs ([2]; lungs): high; absorption after oral administration ([2]; oral administration): only moderately absorbed; plasma half-life ([2]; plasma): low
